25 compounds from US10689414B2 (Agios Pharmaceuticals, Inc., priority 2013, dated 2020) can be followed below.

The assay deals with U87MG cells. In words: Cellular assay, inhibition of 2-HG production in U87MG cells. It is filed as cell-based. The method, then: Cells (HT1080 or U87MG) are grown in T125 flasks in DMEM containing 10% FBS, 1× penicillin/streptomycin and 500 ug/mL G418 (present in U87MG cells only). They are harvested by trypsin and seeded into 96 well white bottom plates at a density of 5000 cell/well in 100 ul/well in DMEM with 10% FBS. […] Cells are incubated overnight at 37° C. in 5% CO2. The next day test compounds are made up at 2× the final concentration and 100 ul are added to each cell well. The final concentration of DMSO is 0.2% and the DMSO control wells are plated in row G. The plates are then placed in the incubator for 48 hours. […] The cell plate is placed back in the incubator for another 24 hours. At 72 hours post compound addition, 10 mL/plate of Promega Cell Titer Glo reagent is thawed and mixed. The cell plate is removed from the incubator and allowed to equilibrate to room temperature. Then 100 ul of Promega Cell Titer Glo reagent is added to each well of media. The cell plate is then placed on an orbital shaker for 10 minutes and then allowed to sit at room temperature for 20 minutes. The plate is then read for luminescence with an integration time of 500 ms.

As a reminder, the IC50 is the concentration at which inhibition is half-maximal. A higher IC50 goes with a need for much substance. For the setting “Homo sapiens, U-87 MG, 48 h”, `O=C(NC1CC(F)(F)C1)C(c1c(Cl)cccc1Cl)N(C(=O)[C@@H]1CCC(=O)N1c1ncccn1)c1cccc(F)c1` (stereo partly shown) [Compound 51] registered an IC50 of 100 to 500 nM.
Consider `CCOC(=O)CN1C[C@@H](C(=O)N(c2cccc(F)c2)C(C(=O)NC2CC(F)(F)C2)c2ccccc2Cl)N(c2nccc(C#N)n2)C1=O` (stereo partly drawn) [Compound 111, Ethyl 2-((4S)-4-((1-(2-chlorophenyl)-2-((3,3-difluorocyclobutyl)amino)-2-oxoethyl)(3-fluorophenyl)carbamoyl)-3-(4-cyanopyrimidin-2-yl)-2-oxoimidazolidin-1-yl)acetate], for which, for the setting “Homo sapiens, U-87 MG, 48 h”, the IC50 was below 100 nM.
Compound `N#Cc1ccnc(N2C(=O)CC[C@H]2C(=O)N(c2cccc(CO)c2)[C@H](C(=O)NC2CC(F)(F)C2)c2ccccc2Cl)c1` [Compound 131, (S)—N—((S)-1-(2-Chlorophenyl)-2-(3,3-difluorocyclobutylamino)-2-oxoethyl)-1-(4-cyanopyridin-2-yl)-N-(3-(hydroxymethyl)phenyl)-5-oxopyrrolidine-2-carboxamide] displayed an IC50 (Homo sapiens, U-87 MG, 48 h) below 100 nM.
For the compound `N#Cc1cc(C#N)cc(N(C(=O)[C@@H]2CCC(=O)N2c2cc(C#N)ccn2)[C@H](C(=O)NC2CC(F)(F)C2)c2ccccc2Cl)c1` [Compound 153, (S)—N—((S)-1-(2-Chlorophenyl)-2-((3,3-difluorocyclobutyl)amino)-2-oxoethyl)-1-(4-cyanopyridin-2-yl)-N-(3,5-dicyanophenyl)-5-oxopyrrolidine-2-carboxamide], the IC50 (Homo sapiens, U-87 MG, 48 h) is below 100 nM.
`O=C(NC1CCCCC1)[C@H](c1ccccc1Cl)N(C(=O)[C@@H]1CCC(=O)N1c1ncccn1)c1cccc(F)c1` [Compound 7] showed an IC50 (Homo sapiens, U-87 MG, 48 h) below 100 nM.
For `COc1cccc(N(C(=O)[C@@H]2CCC(=O)N2c2nccc(C#N)n2)[C@H](C(=O)NC2CC(F)(F)C2)c2ccccc2Cl)c1` [Compound 164, (S)—N—((S)-1-(2-Chlorophenyl)-2-(3,3-difluorocyclobutyl-amino)-2-oxoethyl)-1-(4-cyanopyrimidin-2-yl)-N-(3-methoxyphenyl)-5-oxopyrrolidine-2-carboxamide], the IC50 (Homo sapiens, U-87 MG, 48 h) was below 100 nM.
Compound `N#Cc1ccnc(N2C(=O)[C@@H](O)C[C@H]2C(=O)N(c2cccc(F)c2)[C@H](C(=O)NC2CCC(F)(F)CC2)c2ccccc2Cl)n1` [Compound 189, (2S,4S)—N—((S)-1-(2-Chlorophenyl)-2-((4,4-difluorocyclohexyl)amino)-2-oxoethyl)-1-(4-cyanopyrimidin-2-yl)-N-(3-fluorophenyl)-4-hydroxy-5-oxopyrrolidine-2-carboxamide] came in with an IC50 (Homo sapiens, U-87 MG, 48 h) below 100 nM.
`CCOC(=O)CN1CC(=O)N(c2cc(C#N)ccn2)[C@H](C(=O)N(c2cc(F)cc(F)c2)[C@H](C(=O)NC2CC(F)(F)C2)c2ccccc2Cl)C1` [Compound 104] registered an IC50 (Homo sapiens, U-87 MG, 48 h) below 100 nM.
As to `N#Cc1ccnc(N2C(=O)[C@@H](O)C[C@H]2C(=O)N(c2cc(F)cc(F)c2)[C@H](C(=O)NC2CC(F)(F)C2)c2ccccc2Cl)c1` [Compound 171, (2S,4S)—N—((S)-1-(2-Chlorophenyl)-2-((3,3-difluorocyclobutyl)amino)-2-oxoethyl)-1-(4-cyano-pyridin-2-yl)-N-(3,5-difluorophenyl)-4-hydroxy-5-oxopyrrolidine-2-carboxamide], the IC50 (Homo sapiens, U-87 MG, 48 h) is below 100 nM.
The compound `N#Cc1cnc(N2C(=O)CC[C@H]2C(=O)N(c2cc(F)cc(F)c2)[C@H](C(=O)NC2CC(F)(F)C2)c2ccccc2Cl)o1` [Compound 162, (S)—N—((S)-1-(2-chlorophenyl)-2-((3,3-difluorocyclobutyl)amino)-2-oxoethyl)-1-(5-cyanooxa-zol-2-yl)-N-(3,5-difluorophenyl)-5-oxopyrrolidine-2-carboxamide] had an IC50 (Homo sapiens, U-87 MG, 48 h) below 100 nM.
In the case of `CS(=O)(=O)Nc1cccc(N(C(=O)[C@@H]2CCC(=O)N2c2cc(C#N)ccn2)[C@H](C(=O)NC2CC(F)(F)C2)c2ccccc2Cl)c1` [Compound 159, (S)—N—((S)-1-(2-Chlorophenyl)-2-(3,3-difluorocyclobutylamino)-2-oxoethyl)-1-(4-cyanopyridin-2-yl)-N-(3-(methylsulfonamido)phenyl)-5-oxopyrrolidine-2-carboxamide], the IC50 (Homo sapiens, U-87 MG, 48 h) was below 100 nM.
As to `N#Cc1ccnc(N2C(=O)[C@H](O)C[C@H]2C(=O)N(c2cccc(F)c2)[C@H](C(=O)NC2CCC(F)(F)CC2)c2ccccc2Cl)n1` [Compound 123, (2S,4R)—N—((S)-1-(2-Chlorophenyl)-2-((4,4-difluorocyclohexyl)amino)-2-oxoethyl)-1-(4-cyanopyrimidin-2-yl)-N-(3-fluorophenyl)-4-hydroxy-5-oxopyrrolidine-2-carboxamide], under “Homo sapiens, U-87 MG, 48 h”, the IC50 was below 100 nM.
On to `N#Cc1ccnc(N2C(=O)CC[C@H]2C(=O)N(c2cccc3[nH]ncc23)C(C(=O)NC2CC(F)(F)C2)c2ccccc2Cl)c1` (stereo partly drawn) [Compound 152, (2S)—N-(1-(2-Chlorophenyl)-2-((3,3-difluorocyclobutyl)amino)-2-oxoethyl)-1-(4-cyanopyridin-2-yl)-N-(1H-indazol-4-yl)-5-oxopyrrolidine-2-carboxamide], for which the IC50 (Homo sapiens, U-87 MG, 48 h) was below 100 nM.
“(S)—N—((S)-1-(2-Chlorophenyl)-2-((4,4-difluorocyclohexyl)amino)-2-oxoethyl)-1-(4-cyanopyridin-2-yl)-N-(1H-indazol-6-yl)-5-oxopyrrolidine-2-carboxamide [Compound 136]” came in with an IC50 (inhibition of 2-HG production, U87MG cells, 48 hours) below 100 nM.
In the case of `O=C(NC1CC(F)(F)C1)[C@H](c1ccccc1Cl)N(C(=O)[C@@H]1COCC(=O)N1c1ncccn1)c1cccc(F)c1` [Compound 30, (S)—N—((S)-1-(2-chlorophenyl)-2-((3,3-difluorocyclobutyl)amino)-2-oxoethyl)-N-(3-fluorophenyl)-5-oxo-4-(pyrimidin-2-yl)morpholine-3-carboxamide], the IC50 (Homo sapiens, U-87 MG, 48 h) is 100 to 500 nM.
On to `N#Cc1ccnc(N2C(=O)CC[C@H]2C(=O)N(c2cc(F)cc(F)c2)[C@H](C(=O)NC2CC(F)(F)C2)c2ncccc2Cl)c1` [Compound 198, (S)—N—((S)-1-(3-Chloropyridin-2-yl)-2-(3,3-difluorocyclobutylamino)-2-oxoethyl)-1-(4-cyanopyridin-2-yl)-N-(3,5-difluorophenyl)-5-oxopyrrolidine-2-carboxamide], for which the IC50 (Homo sapiens, U-87 MG, 48 h) is below 100 nM.
The same measure, in the same setting: with `N#Cc1ccnc(N2C(=O)CC[C@H]2C(=O)N(c2cccc(-c3cn[nH]c3)c2)[C@H](C(=O)NC2CC(F)(F)C2)c2ccccc2Cl)c1` (single isomer, unassigned) [Compound 200] the figure was below 100 nM; with `N#Cc1ccnc(N2C(=O)CC[C@H]2C(=O)N(c2cccc(F)c2)[C@H](C(=O)NC2CC(F)(F)C2)c2ccccc2Cl)c1F` [Compound 82, (S)—N—((S)-1-(2-Chlorophenyl)-2-((3,3-difluorocyclobutyl)amino)-2-oxoethyl)-1-(4-cyano-3-fluoropyridin-2-yl)-N-(3-fluorophenyl)-5-oxopyrrolidine-2-carboxamide], below 100 nM; with `N#Cc1ccnc(N2C(=O)[C@@H](O)C[C@H]2C(=O)N(c2cccc(F)c2)[C@H](C(=O)NC2CC(F)(F)C2)c2ccccc2Cl)n1` [Compound 119, (2S,4S)—N—((S)-1-(2-Chlorophenyl)-2-(3,3-difluorocyclobutylamino)-2-oxoethyl)-1-(4-cyanopyrimidin-2-yl)-N-(3-fluorophenyl)-4-hydroxy-5-oxopyrrolidine-2-carboxamide], 100 to 500 nM.
`N#Cc1ccnc(N2C(=O)CC[C@H]2C(=O)N(c2cccc(OC(F)F)c2)[C@H](C(=O)NC2CC(F)(F)C2)c2ccccc2Cl)n1` [Compound 194, (S)—N—((S)-1-(2-Chlorophenyl)-2-((3,3-difluorocyclobutyl)amino)-2-oxoethyl)-1-(4-cyanopyrimidin-2-yl)-N-(3-(difluoromethoxy)phenyl)-5-oxopyrrolidine-2-carboxamide] returned an IC50 (Homo sapiens, U-87 MG, 48 h) below 100 nM.
On the same count and under the same terms, with `N#Cc1cc(F)cc(N(C(=O)[C@@H]2CCC(=O)N2c2cc(C#N)ccn2)[C@H](C(=O)NC2CC(F)(F)C2)c2ccccc2)c1` [Compound 211, (S)—N-(3-Cyano-5-fluorophenyl)-1-(4-cyanopyridin-2-yl)-N—((S)-2-(3,3-difluorocyclobutyl-amino)-2-oxo-1-phenylethyl)-5-oxopyrrolidine-2-carboxamide] the figure was below 100 nM.
`N#Cc1ccnc(N2C(=O)[C@H](O)C[C@H]2C(=O)N(c2cc(F)cc(F)c2)[C@@H](C(=O)NC2CCC(F)(F)CC2)c2ccccc2Cl)c1` [Compound 124, (2S,4R)—N—((R)-1-(2-Chlorophenyl)-2-(4,4-difluorocyclohexylamino)-2-oxoethyl)-1-(4-cyanopyridin-2-yl)-N-(3,5-difluorophenyl)-4-hydroxy-5-oxopyrrolidine-2-carboxamide] gave an IC50 (Homo sapiens, U-87 MG, 48 h) below 100 nM.
With `N#Cc1cccc(N(C(=O)[C@@H]2CCC(=O)N2c2cc(C#N)ccn2)[C@H](C(=O)NC2CC(F)(F)C2)c2ccccc2Cl)c1` [Compound 128, (S)—N—((S)-1-(2-Chlorophenyl)-2-((3,3-difluorocyclobutyl)amino)-2-oxoethyl)-N-(3-cyano-phenyl)-1-(4-cyanopyridin-2-yl)-5-oxopyrrolidine-2-carboxamide], the IC50 (Homo sapiens, U-87 MG, 48 h) is below 100 nM.
`N#Cc1cccnc1N1C(=O)CC[C@H]1C(=O)N(c1cccc(F)c1)[C@H](C(=O)NC1CC(F)(F)C1)c1ccccc1Cl` [Compound 69, (S)—N—((S)-1-(2-Chlorophenyl)-2-((3,3-difluorocyclobutyl)amino)-2-oxoethyl)-1-(3-cyanopyri-din-2-yl)-N-(3-fluorophenyl)-5-oxopyrrolidine-2-carboxamide]: the IC50 (Homo sapiens, U-87 MG, 48 h) is below 100 nM.
On to `N#Cc1ccnc(N2C(=O)CC[C@H]2C(=O)N(c2cccc(F)c2)[C@H](C(=O)NC2CCC(F)(F)CC2)c2ccccc2Cl)c1` [Compound 53], for which the IC50 (Homo sapiens, U-87 MG, 48 h) is below 100 nM.
